Read-outs that look alike come from different tables or passages of the source.
How the values were obtained:
[1] = biological target: T1, BRD4 BD1 (Homo sapiens, UniProt O60885); experiment: AlphaScreen binding assay, BRD4 Bromodomain 1
T1 construct: made in house
Procedure, shortened: (§1)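 An AlphaScreen competition format was used with His-BRD4 BD1 or BD2 and biotin-H4 K5/8/12/16-acetyl peptide, each at matched final levels of 50 nM (BD1) or 100 nM (BD2). Incubation in HEPES/NaCl buffer with 0.1% BSA and 0.01% Triton X-100 ran ≥1 h before IC50 determination.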

[2] = biological target: T2, BRD4 BD2 (Homo sapiens, UniProt O60885); experiment: AlphaScreen binding assay, BRD4 Bromodomain 2
T2 construct: made in house
Procedure, shortened: as §1

[3] = system: MV4-11 cells; experiment: Oncology cell growth assay (3-day proliferation, CellTiter-Glo); format: cell-based; settings: Homo sapiens, AML cell line MV4-11, 72 hours, compounds grouped by IC50 range, read-out: MV4-11 IC50 (inhibition of proliferation, gIC50)
Procedure, shortened: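 Luminescence from CellTiter-Glo served as the growth read-out after MV4-11 cells (3000/well) were cultured with compound for 72 hours. Final concentrations spanned 10 to 0.0045 μM in 3-fold steps. gIC50 values were derived by four-parameter logistic fitting relative to DMSO and cell-free controls.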

Row | Compound | IC50 [1] [nM] | IC50 [2] [nM] | IC50 ([3]; MV4-11, 72 h) [nM] | IC50 [3] [nM]
1 | COC(=O)Nc1ccc2c(c1)N(C(C)=O)[C@@H](C)CN2C(=O)OC(C)C [Example I-202, Isopropyl (S)-4-acetyl-6-((methoxycarbonyl)amino)-3-methyl-3,4-dihydro quinoxaline-1(2H)-carboxylate] | > 10000 | > 500 | > 500 | –
2 | CCOC(=O)N1C[C@H](C)N(C(C)=O)c2ccc(-c3ccc(S(=O)(=O)CC4CC4)cc3)cc21 [Example I-1076] | 1000 to 10000 | 50 to 500 | > 500 | –
3 | CC(=O)N1c2ccc(-c3cnn(C4CCNCC4)c3)cc2N(C(=O)Oc2ccccn2)C[C@@H]1C [Example I-1332] | 100 to 1000 | < 50 | – | < 100
4 | CC(C)OC(=O)N1C[C@H](C)N(C(=O)C2CC2)c2ccc(-c3cnn(C[C@H]4CCNC4)c3)cc21 [Example I-690] | 100 to 1000 | 50 to 500 | > 500 | –
5 | CCS(=O)(=O)c1cccc(-c2ccc3c(c2)N(C(=O)OC(C)C)C[C@H](C)N3C(C)=O)c1 [Example I-1093] | 100 to 1000 | 50 to 500 | 100 to 500 | –
6 | COc1ccc(C)cc1OC(=O)N1C[C@H](C)N(C(C)=O)c2ccc(-c3cnn(C4CC4)c3)cc21 [Example I-508] | 100 to 1000 | 50 to 500 | 100 to 500 | –
7 | CC(=O)N1c2ccc(-c3ccc4ncccc4c3)cc2N(C(=O)COc2ccccc2)C[C@@H]1C [Example I-791] | 1000 to 10000 | 50 to 500 | > 500 | –

Now from value to compound, other results behind:

Row | IC50 [1] [nM] | IC50 [2] [nM] | IC50 ([3]; MV4-11, 72 h) [nM] | Compound | IC50 [3] [nM]
8 | 100 to 1000 | < 50 | 100 to 500 | CC(=O)N1c2ccc(-c3ccc(S(C)(=O)=O)cc3)cc2N(C(=O)OC(C)C)C[C@@H]1C [Example I-294] | –
9 | 100 to 1000 | 50 to 500 | 100 to 500 | CC(=O)N1c2ccc(-c3ccc(C(=O)N(C)c4ccccn4)cc3)cc2N(C(=O)OC(C)C)C[C@@H]1C [Example I-552] | –
10 | 100 to 1000 | 50 to 500 | > 500 | CC(=O)N1c2ccc(-c3ccc4c(c3)CS(=O)(=O)N4)cc2N(C(=O)C2CC2)C[C@@H]1C [Example I-1178] | –
11 | 100 to 1000 | 50 to 500 | 100 to 500 | CC(=O)N1c2ccc(-c3cnc(N)cn3)cc2N(C(=O)OC(C)C)C[C@@H]1C [Example I-471] | –
12 | 100 to 1000 | < 50 | < 100 | COc1ccc(OC(=O)N2C[C@H](C)N(C(C)=O)c3ccc(-c4ccc(S(C)(=O)=O)cc4)cc32)cc1 [Example I-233] | –
13 | 100 to 1000 | > 500 | > 500 | CC(=O)N1c2ccc(-c3ccc(N4CCCS4(=O)=O)cc3)cc2N(C(=O)OC2CC(F)(F)C2)C[C@@H]1C [Example I-29, 3,3-difluorocyclobutyl (3S)-4-acetyl-7-[4-(1,1-dioxo-1λ^6,2-thiazolidin-2-yl)phenyl]-3-methyl-1,2,3,4-tetrahydroquinoxaline-1-carboxylate] | –
14 | 100 to 1000 | < 50 | 100 to 500 | CC(=O)N1c2ccc(-c3ccc(C)s3)cc2N(C(=O)c2ccco2)C[C@@H]1C [Example I-872] | –
15 | 100 to 1000 | 50 to 500 | > 500 | COC(=O)N1c2ccc(-c3cnn(CCN4CCCS4(=O)=O)c3)cc2N(C(=O)OC(C)C)C[C@@H]1C [Example I-626] | –
16 | 100 to 1000 | 50 to 500 | < 100 | COc1cc(C)ccc1OC(=O)N1C[C@H](C)N(C(C)=O)c2ccc(-c3cnn(C4CC4)c3)cc21 [Example I-506] | –
17 | < 100 | < 50 | < 100 | CC(=O)N1c2ccc(-c3cnn(C4CCOCC4)c3)cc2N(C(=O)OC2CCCC2)C[C@@H]1C [Example I-1147] | –

— US10703764B2, “Benzopiperazine compositions as BET bromodomain inhibitors” (FORMA Therapeutics, Inc., priority 2013, dated 2020)
